Assay results published in patent US8470856B2, “Anthranilamide compounds, process for their production and pesticides containing them” (Ishihara Sangyo Kaisha, Ltd., priority 2004, dated 2013).
“And” between values parts separate entries of the source, which are not always exact repeats. Equal entries are not always repeated.

Tests used:
Type in all cases: in vivo
[1] = system: Haemaphysalis longicornis; assay: Controlling effects against Haemaphysalis longicornis, knockdown of larval ticks in treated petri dish; details: 1 ml acetone solution 10 μg/ml on petri dish, 25° C., operation repeated twice (two values)
Procedure: Test on Controlling Effects Against Haemaphysalis longicornis
On an inner surface of a petri dish having diameter of 9 cm, 1 ml of an acetone solution of a sample compound (concentration: 10 μg/ml) was dropwise applied by a micropipette. On the other hand, as a control section, 1 ml of acetone was dropwise applied in the same manner. The inner surface of the petri dish was dried, and then about 100 larval ticks were put, and the petri dish was covered with a polyethylene sheet and sealed with an elastic band. Thereafter, except for the observation time, the petri dish was left to stand at a constant temperature of 25° C. under a relative humidity of 100% and under a constantly dark condition. The observation was carried out every time after putting the larval ticks in the petri dish (after 5 minutes, 10 minutes, 15 minutes, 20 minutes, 30 minutes, 45 minutes, 1 hour, 2 hours, 4 hours, 6 hours and 24 hours). The number of knockdown ticks after the contact with the insecticidal compound was recorded. The foregoing operation was repeated twice.
The knockdown rate at each observation time was corrected by the following abbott correction formula. Then, a probit-time linear line was drawn, and the median knockdown time (KT50 value) was obtained. With respect to the KT50 values of the respective sample compounds, they were 9 minutes and 8 minutes with the above-mentioned compound No. 3, and 7.5 minutes and 6 minutes with the above-mentioned compound No. 9, while they were 80 minutes and 40 minutes with the following comparative compound A and 120 minutes and 80 minutes with the following comparative compound B. Corrected knockdown rate(%)=[(non-knockdown rate in control section−non-knockdown rate in treated section)/non-knockdown rate in control section]×100

[2] = system: Common Cutworm (Spodoptera litura); assay: Controlling effects against common cutworm, cabbage leaf dip; details: foliar, 120 h
Description: Test on Controlling Effects Against Common Cutworm (Spodoptera litura)
A leaf segment of cabbage was dipped for about 10 seconds in an insecticidal solution prepared to bring the concentration of the compound of the present invention to 50 ppm or 3.1 ppm and dried in air. A wet filter paper was laid in a petri dish having a diameter of 9 cm, and the dried leaf segment of cabbage was placed thereon. Ten second-third instar larvae common cutworm were released therein and after putting a cover, left in a constant temperature chamber at 25° C. with lightening. Dead larvae were counted 5 days after the release, and the mortality was calculated by the following equation. Here, moribund insects were counted as dead insects. […] Mortality(%)=(number of dead insects/number of released insects)×100

[3] = system: Cat Flea (Ctenocephalides felis); assay: Controlling effects against cat flea, dry film in glass tube; details: 0.5 ml of 5.3 ppm acetone solution as dry film, adult fleas, 48 hours after exposure
Procedure: Test on Controlling Effects Against Cat Flea (Ctenocephalides felis)
0.5 ml of an acetone solution of the compound of the present invention prepared to be 5.3 ppm was dropped in a glass tube having a flat bottom (inner diameter: 2.6 cm, bottom area: 5.3 cm^2, height 12 cm). The acetone was evaporated at room temperature to have a dry film containing the compound of the present invention formed on the bottom surface. Ten adults of cat flea (not-yet-blood-sucked adults within five days after adult emergence) were put therein and exposed to the compound of the present invention. The test was carried out continuously three times.
Dead cat flea were counted 48 hours after the exposure and the mortality was obtained in the same manner as in the above Test Example 1.

Which “median knockdown time (KT50 value)” value [1] does the source give for `Cc1cc(Cl)cc(C(=O)NC(C)C2CC2)c1NC(=O)c1cc(C(F)(F)F)nn1-c1ncccc1Cl` (stereo not drawn) [compound No. 3, N-[4-chloro-2-methyl-6-[[α-methyl-(cyclopropylmethyl)amino]carbonyl]-phenyl]-3-(trifluoromethyl)-1-(3-chloro-2-pyridyl)-1H-pyrazol-5-carboxamide] here?
The value was 9 min and 8 min.

With `Cc1cc(Cl)cc(C(=O)NC(C)C)c1NC(=O)c1cc(Br)nn1-c1ncccc1Cl` [comparative compound B, reference compound] as the compound, how does the “median knockdown time (KT50 value)” value [1] read?
The value was 120 min and 80 min.

`Cc1cc(Cl)cc(C(=O)NC(C)C2CC2)c1NC(=O)c1cc(Br)nn1-c1ncccc1Cl` (stereo not drawn) [compound No. 9, N-[4-chloro-2-methyl-6-[[α-methyl-(cyclopropylmethyl)amino]carbonyl]-phenyl]-3-bromo-1-(3-chloro-2-pyridyl)-1H-pyrazol-5-carboxamide] was tested. Which “median knockdown time (KT50 value)” value [1] did it give?
Its value is 7.5 min and 6 min.

With `Cc1cc(Cl)cc(C(=O)NC(C)C)c1NC(=O)c1cc(C(F)(F)F)nn1-c1ncccc1Cl` [comparative compound A, reference compound] as the compound, how does the “median knockdown time (KT50 value)” value [1] read?
Its value is 80 min and 40 min.

With `Cc1cccc(C(=O)NCC2CC2)c1NC(=O)c1cc(C(F)(F)F)nn1-c1ncccc1Cl` [compound No. 1, N-[6-[[(cyclopropylmethyl)amino]carbonyl]-2-methylphenyl]-1-(3-chloro-2-pyridyl)-3-(trifluoromethyl)-1H-pyrazol-5-carboxamide] as the compound, how does the mortality at 3.1 ppm [2] read?
The mortality at 3.1 ppm was at least 90%.

How did the mortality [3] turn out when `CC(NC(=O)c1cc(Cl)cc(Br)c1NC(=O)c1cc(Br)nn1-c1ncccc1Cl)C1CC1` (stereo not drawn) [compound No. 16, N-[2-bromo-4-chloro-6-[[α-methyl-(cyclopropylmethyl)amino]carbonyl]-phenyl]-3-bromo-1-(3-chloro-2-pyridyl)-1H-pyrazol-5-carboxamide] was run?
Its mortality is “at least 90%”.
